In patent publication US4325947A (priority 1981, dated 1982):
Converted amounts (≈) assume the structure as drawn. “And” between values parts separate entries of the source, which are not always exact repeats. Identical values can stand only once. Like-named read-outs stand apart in the source and are kept apart here.

Experiments:
[1] = test system: P388 ascitic leukemia; assay: Activity against P388 ascitic leukemia in mice, ip
Experimental: Activity against P388 ascitic leukemia^1
^1 Mice were injected ip with 10^6 leukemia cells/mouse. Data of
^2 Treatment ip on day 1 after tumor inoculum.
(§1) ^3 Medium survival time of treated animals/medium survival time of […]

[2] = test system: L1210 leukemia
Excerpt: as §1

[3] = test system: Gross leukemia; assay: Activity against disseminated Gross leukemia in mice, i.v. and oral; details: for T/C % (survival time treated/controls × 100) / Toxic deaths: day 1
Excerpt: as §1

[4] = test system: HeLa cells; assay: HeLa cells cloning efficiency in vitro, treatment for 24 hours; details: for IC50: read-out: ID50
[5] = test system: experimental leukemias; assay: In vivo antitumor activity/potency versus doxorubicin (general statements); set-up: species or system mice
Excerpt: In vivo the compound has been compared to doxorubicin against three different experimental leukemias of mice.

[6] = Homo sapiens, HeLa, 24 h, read-out: % of controls (HeLa cells cloning efficiency)

Which “T/C % (survival time treated/controls × 100)” value ([1]; 4.4 mg/kg ip on day 1) does the source give for `COc1cccc2c1C(=O)c1c(O)c3c(c(O)c1C2=O)C[C@@](O)(C(=O)CO)C[C@@H]3O[C@H]1C[C@H](N)[C@H](O)[C@H](C)O1` [Doxorubicin, doxorubicin, reference compound] here?
The value was 210% and 180%.

And the Toxic deaths ([1]; 4.4 mg/kg ip on day 1)?
The Toxic deaths was 0/16.

And the “T/C % (survival time treated/controls × 100)” value ([1]; 6.6 mg/kg ip on day 1)?
Its value is 220% and 190%.

What about the Toxic deaths ([1]; 6.6 mg/kg ip on day 1) of the same compound?
Its Toxic deaths is 0/16.

And the “T/C % (survival time treated/controls × 100)” value ([1]; 10.0 mg/kg ip on day 1)?
Its value is 225% and 220%.

What about the Toxic deaths ([1]; 10.0 mg/kg ip on day 1) of the same compound?
Its Toxic deaths is 0/16.

And the “T/C % (survival time treated/controls × 100)” value ([2]; 10 mg/kg iv on day 1)?
The value was 133%.

And the Toxic deaths ([2]; 10 mg/kg iv on day 1)?
Its Toxic deaths is 0/10.

And the “T/C % (survival time treated/controls × 100)” value ([2]; 13 mg/kg iv on day 1)?
Its value is 150%.

What about the Toxic deaths ([2]; 13 mg/kg iv on day 1) of the same compound?
Its Toxic deaths is 0/9.

And the “T/C % (survival time treated/controls × 100)” value ([2]; 16.9 mg/kg iv on day 1)?
Its value is 166%.

What about the Toxic deaths ([2]; 16.9 mg/kg iv on day 1) of the same compound?
Its Toxic deaths is 1/10.

And the “T/C % (survival time treated/controls × 100)” value ([3]; i.v. 13 mg/kg)?
Its value is 200%.

What about the Toxic deaths ([3]; i.v. 13 mg/kg) of the same compound?
The Toxic deaths was 0/18.

What about the Toxic deaths ([3]; i.v. 16.9 mg/kg) of the same compound?
The Toxic deaths was 0/18.

What about the “T/C % (survival time treated/controls × 100)” value ([3]; i.v. 16.9 mg/kg, 16.9 mg/kg) of the same compound?
Its value is 233% and 216%.

And the activity at 0.0031 µg/mL [4, 6]?
The activity at 0.0031 µg/mL was 102%.

And the activity at 0.0062 µg/mL [4, 6]?
The activity at 0.0062 µg/mL was 68%.

What about the activity at 0.0125 µg/mL [4, 6] of the same compound?
The activity at 0.0125 µg/mL was 44%.

And the IC50 ([4]; Homo sapiens, HeLa, 24 h)?
Its IC50 is roughly 10 ng/mL (≈ 18.4 nM).

How did the “T/C % (survival time treated/controls × 100)” value ([1]; 0.04 mg/kg ip on day 1) turn out when `C[C@H]1C[C@@H](N)C[C@H](O[C@H]2C[C@](O)(C(=O)CO)Cc3c(O)c4c(c(O)c32)C(=O)c2ccccc2C4=O)O1` [XOO-0144, 4-demethoxy-4'-deoxydoxorubicin] was run?
Its value is 130%.

What about the “T/C % (survival time treated/controls × 100)” value ([1]; 0.12 mg/kg ip on day 1) of the same compound?
The value was 170%.

What about the “T/C % (survival time treated/controls × 100)” value ([1]; 0.25 mg/kg ip on day 1) of the same compound?
The value was 205% and 195%.

And the “T/C % (survival time treated/controls × 100)” value ([1]; 0.5 mg/kg ip on day 1)?
The value was 235%.

What about the “T/C % (survival time treated/controls × 100)” value ([1]; 1 mg/kg ip on day 1) of the same compound?
Its value is 75% and 90%.

And the Toxic deaths ([1]; 1 mg/kg ip on day 1)?
Its Toxic deaths is 7/16.

What about the “T/C % (survival time treated/controls × 100)” value ([1]; 5 mg/kg ip on day 1) of the same compound?
Its value is 55%.

And the Toxic deaths ([1]; 5 mg/kg ip on day 1)?
Its Toxic deaths is 8/8.

What about the optimal doses ([1]; administered ip) of the same compound?
The optimal doses was 0.25 to 0.5 mg/kg.

What about the “potency relative to doxorubicin, ip” value ([1]; administered ip, mice bearing P388 ascitic leukemia) of the same compound?
The value was 10-20 times.

And the “antitumor activity compared with doxorubicin” value ([1]; ip, 0.25-0.5 mg/kg vs doxorubicin from 4 to 10 mg/kg)?
Its value is “antitumor activity of the same order of magnitude as that of doxorubicin”.

And the “T/C % (survival time treated/controls × 100)” value ([2]; 0.9 mg/kg iv on day 1)?
Its value is 183%.

And the Toxic deaths ([2]; 0.9 mg/kg iv on day 1)?
The Toxic deaths was 0/10.

What about the “T/C % (survival time treated/controls × 100)” value ([2]; 1.2 mg/kg iv on day 1) of the same compound?
The value was 191%.

What about the Toxic deaths ([2]; 1.2 mg/kg iv on day 1) of the same compound?
Its Toxic deaths is 0/10.

What about the “T/C % (survival time treated/controls × 100)” value ([2]; 1.56 mg/kg iv on day 1) of the same compound?
The value was 116%.

What about the Toxic deaths ([2]; 1.56 mg/kg iv on day 1) of the same compound?
The Toxic deaths was 6/10.

And the “activity against L1210 leukemia in comparison with doxorubicin (summary, words)” value ([2]; in comparison with doxorubicin)?
Its value is “more active against L1210 leukemia”.

And the tolerated doses ([2]; iv)?
The tolerated doses was 0.9 mg/kg and 1.2 mg/kg.

And the “effectiveness compared with doxorubicin” value ([2]; iv, tolerated doses 0.9 and 1.2 mg/kg vs doxorubicin 13 mg/kg)?
Its value is “more effective than doxorubicin”.

And the “T/C % (survival time treated/controls × 100)” value ([3]; i.v. 0.35 mg/kg)?
The value was 100%.

What about the Toxic deaths ([3]; i.v. 0.35 mg/kg) of the same compound?
Its Toxic deaths is 0/8.

And the “T/C % (survival time treated/controls × 100)” value ([3]; i.v. 0.53 mg/kg)?
Its value is 108%.

What about the Toxic deaths ([3]; i.v. 0.53 mg/kg) of the same compound?
Its Toxic deaths is 0/8.

What about the “T/C % (survival time treated/controls × 100)” value ([3]; i.v. 0.8 mg/kg) of the same compound?
The value was 116%.

And the Toxic deaths ([3]; i.v. 0.8 mg/kg)?
The Toxic deaths was 0/10.

And the Toxic deaths ([3]; i.v. 1.2 mg/kg)?
Its Toxic deaths is 0/20.

And the “T/C % (survival time treated/controls × 100)” value ([3]; i.v. 1.2 mg/kg, 1.2 mg/kg)?
Its value is 150% and 208%.

And the “T/C % (survival time treated/controls × 100)” value ([3]; i.v. 1.8 mg/kg)?
The value was 133%.

What about the Toxic deaths ([3]; i.v. 1.8 mg/kg) of the same compound?
Its Toxic deaths is 9/10.

What about the “T/C % (survival time treated/controls × 100)” value ([3]; i.v. 2.7 mg/kg) of the same compound?
The value was 116%.

And the Toxic deaths ([3]; i.v. 2.7 mg/kg)?
The Toxic deaths was 10/10.

And the “T/C % (survival time treated/controls × 100)” value ([3]; oral 2.7 mg/kg)?
Its value is 150%.

What about the Toxic deaths ([3]; oral 2.7 mg/kg) of the same compound?
The Toxic deaths was 1/8.

And the “T/C % (survival time treated/controls × 100)” value ([3]; oral 5.4 mg/kg)?
Its value is 133%.

What about the Toxic deaths ([3]; oral 5.4 mg/kg) of the same compound?
Its Toxic deaths is 4/6.

And the “T/C % (survival time treated/controls × 100)” value ([3]; oral 10.8 mg/kg)?
Its value is 100%.

What about the Toxic deaths ([3]; oral 10.8 mg/kg) of the same compound?
The Toxic deaths was 5/5.

And the “activity by oral route” value ([3]; oral, Gross leukemia)?
Its value is “active also when given by oral route”.

What about the “potency relative to doxorubicin, iv” value ([5]; administered iv) of the same compound?
The value was “about 10 times”.

And the “potency in vivo in comparison with doxorubicin (summary, words)” value ([5]; both i.p. and i.v. administration)?
The value was “more potent in vivo (both i.p. and i.v. administration)”.

And the “potency in vivo relative to doxorubicin” value ([5]; in vivo, with reference to doxorubicin)?
The value was “about 10 times”.

What about the “activity by oral route” value [5] of the same compound?
Its value is “active also when administered orally”.

What about the “activity by oral route” value ([5]; listed as 4-demethoxy-4'-deoxydoxorubicin) of the same compound?
Its value is “active also when given by oral route”.

And the “cytotoxicity relative to doxorubicin” value ([4]; HeLa cells cloning efficiency, more cytotoxic than doxorubicin)?
The value was “about 25 times”.

And the activity at 20 pg/mL [4, 6]?
The activity at 20 pg/mL was 102%.

What about the activity at 90 pg/mL [4, 6] of the same compound?
The activity at 90 pg/mL was 72%.

What about the activity at 0.00039 µg/mL [4, 6] of the same compound?
The activity at 0.00039 µg/mL was 69%.

And the activity at 0.0015 µg/mL [4, 6]?
Its activity at 0.0015 µg/mL is 26%.

And the activity at 0.0062 µg/mL [4, 6]?
The activity at 0.0062 µg/mL was 1%.

What about the activity at 0.025 µg/mL [4, 6] of the same compound?
The activity at 0.025 µg/mL was 0%.

What about the IC50 ([4]; Homo sapiens, HeLa, 24 h) of the same compound?
The IC50 was roughly 0.4 ng/mL (≈ 0.804 nM).

What about the “potency in vitro in comparison with doxorubicin (summary, words)” value ([4]; in comparison with doxorubicin) of the same compound?
Its value is “more potent in vitro”.

What about the “potency in vitro relative to doxorubicin” value ([4]; in vitro, with reference to doxorubicin) of the same compound?
The value was 10-20 times.
